Data on 25 compounds can be found in patent publication US9643967B2, “Pyrrolo[3,2-c]pyridine derivatives as TLR inhibitors” (TAKEDA PHARMACEUTICAL COMPANY LIMITED, priority 2013, dated 2017).

SMILES strings stand for the structures.

In the first assay the target is T1, hTLR9 (Homo sapiens, UniProt Q9NR96).
T1 construct: expressed in transfected cells; host or cells: HEK-Blue-hTLR9 cells (HEK293)
T1 sequence (Q9NR96 26-1032): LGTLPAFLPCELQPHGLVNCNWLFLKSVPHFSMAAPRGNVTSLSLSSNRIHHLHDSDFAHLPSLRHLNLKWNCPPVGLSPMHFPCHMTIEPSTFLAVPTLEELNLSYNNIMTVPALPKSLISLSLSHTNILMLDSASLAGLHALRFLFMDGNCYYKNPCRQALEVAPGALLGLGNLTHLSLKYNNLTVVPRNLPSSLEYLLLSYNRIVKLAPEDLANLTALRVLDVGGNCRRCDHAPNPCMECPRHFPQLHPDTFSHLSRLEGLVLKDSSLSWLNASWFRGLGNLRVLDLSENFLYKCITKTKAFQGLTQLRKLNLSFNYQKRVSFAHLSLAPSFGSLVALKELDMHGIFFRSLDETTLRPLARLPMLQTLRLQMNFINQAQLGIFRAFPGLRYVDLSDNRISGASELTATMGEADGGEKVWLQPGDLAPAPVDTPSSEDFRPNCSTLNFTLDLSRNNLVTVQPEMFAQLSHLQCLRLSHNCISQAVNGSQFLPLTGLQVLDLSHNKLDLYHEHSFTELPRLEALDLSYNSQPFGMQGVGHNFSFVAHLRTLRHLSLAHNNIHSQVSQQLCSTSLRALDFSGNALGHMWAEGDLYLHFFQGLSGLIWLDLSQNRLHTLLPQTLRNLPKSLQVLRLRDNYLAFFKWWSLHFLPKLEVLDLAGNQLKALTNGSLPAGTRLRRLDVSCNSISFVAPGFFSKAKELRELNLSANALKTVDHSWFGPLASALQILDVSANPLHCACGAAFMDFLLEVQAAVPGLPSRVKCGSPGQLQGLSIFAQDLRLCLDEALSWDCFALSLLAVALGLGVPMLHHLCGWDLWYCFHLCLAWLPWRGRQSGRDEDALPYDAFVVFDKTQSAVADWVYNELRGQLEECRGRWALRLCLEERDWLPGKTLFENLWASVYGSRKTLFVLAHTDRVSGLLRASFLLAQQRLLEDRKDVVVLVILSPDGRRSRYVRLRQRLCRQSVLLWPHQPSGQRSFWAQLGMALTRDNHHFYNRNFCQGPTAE
Put plainly: hTLR9 antagonism (SEAP inhibition assay) in HEK-Blue-hTLR9 (HEK293) cells, ODN-2006 stimulated. The following applies: 1 μM; SEAP, HEK-Blue-hTLR9 cells. The assay is classed as cell-based. As for the experimental part:
hTLR9 Antagonism (SEAP Inhibition Assay) in HEK293 Cell Lines
The SEAP reporter gene in HEK-Blue™-hTLR9 cells is placed under the control of the IFN-b minimal promoter fused to five NF-kB and AP-1 binding sites. The stimulation with a TLR9 ligand (ODN-2006) activates NF-kB and AP-1 which induces the production of SEAP. Levels of SEAP are determined with QUANTI-Blue™ detection medium that turns purple/blue in the presence of alkaline phosphatase. Decrease in the levels of SEAP production as indicated by reduction in absorbance at 650 nm is directly co-related with the TLR9 inhibitory activity of the antagonist (NCE).
HEK-Blue™-hTLR9 cells were maintained in DMEM with 10% FBS, 1% Penicillin/Streptomycin/Amphotericin (complete growth medium) and 0.2% Normocin. For the assay, cells were dissociated by washing in 1×PBS and re-suspended in complete DMEM. Cells were seeded at a density of 20000 cells per well; (40 μl per well) in a 384 well assay plate.
5 μl of 10× antagonist (NCE) was added to the cells in triplicates for each concentration. The plate was incubated for half an hour at 37° C. with 5% CO2. 5 μl of agonist (ODN-2006) was added and the plate was incubated overnight for 18 hours at 37° C. with 5% CO2. 5 μl of supernatant was transferred to a 384 well reading plate and to this 45 μl of Quanti-Blue™ detection reagent was added. The plate was then incubated for an hour at 37° C. SEAP activity in the supernatant was indicated by change in the pink color of Quanti-Blue™ detection reagent to purple/blue and the absorbance was read at 650 nm in the end point mode.
Regarding `CC(C)N1CCN(C2CCC(c3nccc4[nH]c(CN5CCOCC5)cc34)CC2)CC1` (stereo not shown) [Example A80, 4-[[4-[4-(4-isopropylpiperazin-1-yl)cyclohexyl]-1H-pyrrolo[3,2-c]pyridin-2-yl]methyl]morpholine], the “hTLR9 inhibitory activity (% at 1 μM)” value stood at 95.8%.

Staying with this assay, now noted: HEK-Blue hTLR9, 1 μM; SEAP, HEK-Blue-hTLR9 cells; read-out: hTLR9 inhibitory activity (% at 1 μM).
Take `c1cc2[nH]c(CN3CCOCC3)cc2c(-c2ccc(OC3CCNCC3)cc2)n1` [Example A49, 4-[[4-[4-(4-piperidyloxy)phenyl]-1H-pyrrolo[3,2-c]pyridin-2-yl]methyl]morpholine]: the inhibition at 1 µM turned out to be 91%.
As for `Cc1cc2[nH]c(CN3CCOCC3)cc2c(-c2ccc(C3CCN(C(C)C)CC3)cc2)n1` [Example A51, 4-[[4-[4-(1-isopropyl-4-piperidyl)phenyl]-6-methyl-1H-pyrrolo[3,2-c]pyridin-2-yl]methyl]morpholine], the inhibition at 1 µM is 100%.
Consider `CC(C)N1CC=C(c2ccc(-c3nccc4[nH]c(CN5CCOCC5)cc34)cn2)CC1` [Example A52, 4-[[4-[6-(1-isopropyl-3,6-dihydro-2H-pyridin-4-yl)-3-pyridyl]-1H-pyrrolo[3,2-c]pyridin-2-yl]methyl]morpholine], for which the inhibition at 1 µM is 84.5%.
On to `CC(C)N1CCN(c2ccc(-c3nccc4[nH]c(CN5CCOCC5)cc34)cn2)CC1` [Example A53, 4-[[4-[6-(4-isopropylpiperazin-1-yl)-3-pyridyl]-1H-pyrrolo[3,2-c]pyridin-2-yl]methyl]morpholine], for which the inhibition at 1 µM was found to be 77%.
As to `CC(C)N1CCC(n2cc(-c3nccc4[nH]c(CN5CCOCC5)cc34)cn2)CC1` [Example A54, 4-[[4-[1-(1-isopropyl-4-piperidyl)pyrazol-4-yl]-1H-pyrrolo[3,2-c]pyridin-2-yl]methyl]morpholine], the inhibition at 1 µM came out at 95.4%.
Consider `CC(C)N1CCN(Cc2ccc(-c3nccc4[nH]c(CN5CCOCC5)cc34)cc2)CC1` [Example A55, 4-[[4-[4-[(4-isopropylpiperazin-1-yl)methyl]phenyl]-1H-pyrrolo[3,2-c]pyridin-2-yl]methyl]morpholine], for which the inhibition at 1 µM amounted to 96.5%.
As for `CC(C)N1CCC(Oc2ccc(-c3nccc4[nH]c(CN5CCOCC5)cc34)cc2)CC1` [Example A56, 4-[[4-[4-[(1-isopropyl-4-piperidyl)oxy]phenyl]-1H-pyrrolo[3,2-c]pyridin-2-yl]methyl]morpholine], the inhibition at 1 µM turned out to be 99.5%.
As to `CC(C)N1CCN(c2cccc(-c3nccc4[nH]c(CN5CCOCC5)cc34)c2)CC1` [Example A57, 4-[[4-[3-(4-isopropylpiperazin-1-yl)phenyl]-1H-pyrrolo[3,2-c]pyridin-2-yl]methyl]morpholine], the inhibition at 1 µM amounted to 96.9%.
Take `CN1CCN(Cc2ccc(-c3nccc4[nH]c(CN5CCOCC5)cc34)cc2)CC1` [Example A60, 4-[[4-[4-[(4-methylpiperazin-1-yl)methyl]phenyl]-1H-pyrrolo[3,2-c]pyridin-2-yl]methyl]morpholine]: the inhibition at 1 µM was 86%.
In the case of `CN1CCN(c2cccc(-c3nccc4[nH]c(CN5CCOCC5)cc34)c2)CC1` [Example A61, 4-[[4-[3-(4-methylpiperazin-1-yl)phenyl]-1H-pyrrolo[3,2-c]pyridin-2-yl]methyl]morpholine], the inhibition at 1 µM is 89.5%.
As for `CN1CCC(Oc2ccc(-c3nccc4[nH]c(CN5CCOCC5)cc34)cc2)CC1` [Example A62, 4-[[4-[4-[(1-methyl-4-piperidyl)oxy]phenyl]-1H-pyrrolo[3,2-c]pyridin-2-yl]methyl]morpholine], the inhibition at 1 µM was determined as 98.2%.
On the same count and under the same terms, the figure for `CN1CCC(n2cc(-c3nccc4[nH]c(CN5CCOCC5)cc34)cn2)CC1` [Example A63, 4-[[4-[1-(1-methyl-4-piperidyl)pyrazol-4-yl]-1H-pyrrolo[3,2-c]pyridin-2-yl]methyl]morpholine] is 93.4%; for `CC(C)N1CCC(c2ccc(-c3nccc4[nH]c(CN5CCOCC5)cc34)cn2)CC1` [Example A64, 4-[[4-[6-(1-isopropyl-4-piperidyl)-3-pyridyl]-1H-pyrrolo[3,2-c]pyridin-2-yl]methyl]morpholine] it is 73%; for `CC(C)N1CCC(c2ccc(-c3nccc4[nH]c(CN5CCOCC5)cc34)cc2)CC1` [Example A70, 4-[[4-[4-(1-isopropyl-4-piperidyl)phenyl]-1H-pyrrolo[3,2-c]pyridin-2-yl]methyl]morpholine] it is 100%.
As to `CC(C)N1CCN(c2ccc(-c3nccc4[nH]c(CN5CC(O)C5)cc34)cc2)CC1` [Example A72, 1-[[4-[4-(4-isopropylpiperazin-1-yl)phenyl]-1H-pyrrolo[3,2-c]pyridin-2-yl]methyl]azetidin-3-ol], the inhibition at 1 µM came to 100%.
As to `CC(C)N1CCN(c2ccc(-c3nccc4[nH]c(CN5CCC[C@@H]5C(=O)O)cc34)cc2)CC1` [Example A74, (2R)-1-[[4-[4-(4-isopropylpiperazin-1-yl)phenyl]-1H-pyrrolo[3,2-c]pyridin-2-yl]methyl]pyrrolidine-2-carboxylic acid], the inhibition at 1 µM was determined as 89.4%.
On to `c1cc2[nH]c(CN3CCOCC3)cc2c(-c2ccc(N3CCN(C4COC4)CC3)cc2)n1` [Example A81, 4-[[4-[4-[4-(oxetan-3-yl)piperazin-1-yl]phenyl]-1H-pyrrolo[3,2-c]pyridin-2-yl]methyl]morpholine], for which the inhibition at 1 µM came to 64%.
On the same count and under the same terms, the result for `CC(C)N1CCN(c2ccc(-c3nccc4[nH]c(CCN5CCOCC5)cc34)cc2)CC1` [Example B1, 4-[2-[4-[4-(4-isopropylpiperazin-1-yl)phenyl]-1H-pyrrolo[3,2-c]pyridin-2-yl]ethyl]morpholine] reads 100%.
In the case of `CN1CCN(c2ccc(-c3nccc4[nH]c(CCN5CCOCC5)cc34)cc2)CC1` [Example B2, 4-[2-[4-[4-(4-methylpiperazin-1-yl)phenyl]-1H-pyrrolo[3,2-c]pyridin-2-yl]ethyl]morpholine], the inhibition at 1 µM was found to be 100%.
In the case of `Cc1cc2[nH]c(CCN3CCOCC3)cc2c(-c2ccc(N3CCN(C(C)C)CC3)cc2)n1` [Example B3, 4-[2-[4-[4-(4-isopropylpiperazin-1-yl)phenyl]-6-methyl-1H-pyrrolo[3,2-c]pyridin-2-yl]ethyl]morpholine], the inhibition at 1 µM amounted to 100%.
Take `Cc1cc2[nH]c(CCN3CCOCC3)cc2c(-c2ccc(N3CCN(C)CC3)cc2)n1` [Example B4, 4-[2-[6-methyl-4-[4-(4-methylpiperazin-1-yl)phenyl]-1H-pyrrolo[3,2-c]pyridin-2-yl]ethyl]morpholine]: the inhibition at 1 µM came out at 100%.
For the compound `Cc1cc2[nH]c(CCN3CCCCC3)cc2c(-c2ccc(N3CCN(C(C)C)CC3)cc2)n1` [Example B5, 4-[4-(4-isopropylpiperazin-1-yl)phenyl]-6-methyl-2-[2-(1-piperidyl)ethyl]-1H-pyrrolo[3,2-c]pyridine], the inhibition at 1 µM was 78%.
Take `Cc1nc(-c2ccc(N3CCN(C)CC3)cc2)c2cc(CCN3CCOCC3)[nH]c2c1C` [Example B7, 4-[2-[6,7-dimethyl-4-[4-(4-methylpiperazin-1-yl)phenyl]-1H-pyrrolo[3,2-c]pyridin-2-yl]ethyl]morpholine]: the inhibition at 1 µM was 81.6%.

The same assay, now with this note: HEK-Blue hTLR9, read-out: hTLR9 inhibitory activity (% at 1 μM).
In the case of `CC(C)N1CCN(c2ccc(-c3nccc4[nH]c(C(=O)N5CCOCC5)cc34)cc2)CC1` [Example A82, [4-[4-(4-isopropylpiperazin-1-yl)phenyl]-1H-pyrrolo[3,2-c]pyridin-2-yl]-morpholino-methanone], the inhibition at 1 µM turned out to be 98%.
